{
  "source": "patent US12201598B2",
  "about": "“Immunoregulatory microparticles for modulating inflammatory arthritides” (The Regents of the University of California, priority 2021, dated 2025)",
  "key": {"Naïve SKG CD4+ T cells": {"system": "Naïve SKG CD4+ T cells", "test": "ex vivo Th17 differentiation assay in Th17 inflammatory conditions", "format": "cell-based, mouse", "conditions": "for FoxP3 expression in CD4+ T cells: Th17 polarizing cytokines, four days", "description": "To test the effect of ATRA on enhancing Treg cells, an ex vivo differentiation and stabilization assay in Th17 inflammatory conditions using cytokine supplementation was performed (FIG. 1A). Naïve SKG CD4+ T cells were isolated to consistently obtain greater than 90% CD4+CD44−CD62L+ post-enrichment (data not shown). Subsequently, these cells were stimulated with anti-mouse CD3 (αCD3) and CD28 (αCD28) antibodies along with Th17 polarizing cytokines IL-6, TGF-β1, IL-1β, and IL-23, and immunophenotypes were analyzed after four days. In a subset of conditions, ATRA was added to the T cell culture medium, ranging from 10 pM to 10 nM. […] In addition to reduced expression of IL-17A, the fraction of RORγt+CD4+ T cells was reduced in 1 nM ATRA conditions (53.3±7.9%) relative to cells exposed 0 nM ATRA (73.3±3.9%) (FIG. 1D).\n(§1) The bioactivity of released ATRA was assessed following the experimental schematic outlined in FIG. 1A with supernatant collected at day 1, 14 and 28 and replicates diluted to the expected joint concentration based on delivery of 2 μg ATRA-encapsulated PLGA MPs injected in ˜20 μL of synovial fluid."}, "SKG FoxP3eGFP Treg cells": {"system": "SKG FoxP3eGFP Treg cells", "test": "Treg cell stability (destabilization) assay", "format": "cell-based, mouse", "conditions": "1 nM ATRA, IL6, 72 hours", "description": "The loss of FoxP3 expression correlated with Treg cell transitioning to a Th17-like exTreg cell phenotype, with 23.0±1.7% and 13.3±1.5% of cells without ATRA expressing RORγt and IL-17, respectively, compared to 11.6±1.8% and 5.7±1.1% of cells cultured with 1 nM ATRA (FIGS. 1G and H).\nas §1"}, "[1]": {"system": "healthy C57BL/6J (B6) mice", "test": "OVA immunization in healthy C57BL/6J mice", "format": "in vivo, mouse", "conditions": "spleen; daily i.p. administration", "excerpt": "To quantify the effect of IA ATRA-encapsulated PLGA MPs on arthritis-irrelevant T cell suppression we leveraged OVA-specific tetramers available for quantifying T cells in H2b-background mice and conducted the aforementioned immunization study in healthy C57BL/6J (B6) mice (FIG. 8D). Systemically administered ATRA was delivered as a daily intraperitoneal (i.p.) injection to assess the effect of systemic exposure."}, "[2]": {"system": "chromatin of cells cultured in Th17 inducing conditions", "test": "Assay for Transposase Accessible Chromatin (ATAC) sequencing", "format": "cell-based", "description": "Assay for Transposase Accessible Chromatin (ATAC) sequencing assay uses a hyperactive protein to bind and snip DNA in open chromatin regions to probe for the parts of DNA are accessible for transcription. The ATAC assay was performed to determine whether ATRA causes epigenetic modifications to cellular DNA to influence the accessibly of DNA for transcription and, in turn, modulating what a cell's “default” state/programs are. Quantification of differentially accessible regions (DARs) is shown by counts per peak between cells cultured in Th17 inducing conditions with (ATRA Treated) or without (Th17 Control) 1 nM ATRA. (FIG. 11A).\nFIG. 11C is a heatmap of all DARs grouped in rows by those enriched in the ATRA treated group or those enriched in the Tb17 Control group. Heatmapping was performed by determining the z-score of the DAR in a given sample as compared to the row. A Genome browser plot for Th17 and Treg associated genes is shown (FIG. 11D). The size of the peaks corresponds to the number of reads, so the bigger the peaks are the more accessible that region of DNA is."}, "CD4+ T cells": {"system": "CD4+ T cells", "test": "24-hour pretreatment then transfer to Th17 inducing conditions", "format": "cell-based", "conditions": "24-hour pretreatment 1 nM ATRA, washed", "description": "FIG. 10A depicts the quantification of FOXP3 expression in CD4+ T cells after 24-hour pretreatment with either nothing (None), 1 nM ATRA (ATRA), or IL-2, followed by removal and washing of the cells, and transfer to Th17 inducing conditions. FIG. 10B depicts quantification of IL-17 expression in CD4+ T cells after a 24-hour pretreatment with either nothing (None), 1 nM ATRA (ATRA), or IL-2, followed by removal and washing of the cells, and transfer to Th17 inducing conditions. Pre-treatment of the CD4+ T cells with ATRA increases FOXP3 expression and reduces IL-17 expression after exposure to Th17 inducing conditions."}, "rodents": {"system": "rodents", "conditions": "cited from earlier work"}, "[3]": {"system": "SKG mice with mannan-induced arthritis", "test": "IA treatment of established SKG arthritis (clinical score, ankle thickness)", "format": "in vivo, mouse", "description": "To assess the feasibility of modulating established SKG arthritis. ATRA-encapsulated PLGA MPs were injected into the tibial/tarsal ankle joint of ten SKG mice with middle stage arthritis, prior to the development of severe symptoms. PLGA-Blank MPs were injected into the tibial/tarsal ankle joint of eleven SKG mice with middle stage arthritis. Arthritis onset was synchronized using inter-peritoneal (IP) mannan injection. ATRA-encapsulated PLGA MPs treatment was administered after 14 days, corresponding to established SKG arthritis (FIG. 3A). To track MP degradation in vivo, cyanine-5 (Cy5) conjugated PLGA was incorporated to generate fluorescently labeled Cy5 PLGA MPs and PLGA MPs without ATRA (PLGA-Blank MPs). The PLGA-Blank MPs were imaged using a live animal. In Vivo Imaging System (IVIS). […] Based on fluorescence attenuation, MPs remained localized in the joint after injection and steadily degraded over the course of the study (FIG. 3B). Arthritis progression was quantified using bi-weekly clinical scoring between the treatment groups. […] The improvement in clinical score and ankle thickness measurements were quantified in both the ipsilateral and contralateral joints in the above described studies (FIG. 3H-J, FIGS. 6B and C)."}, "arthritic SKG mice": {"system": "arthritic SKG mice", "test": "subcutaneous administration to arthritic SKG mice", "format": "in vivo, mouse", "conditions": "subcutaneously between the scapula", "description": "The efficacy of subcutaneously administered ATRA-encapsulated PLGA MPS in treating SKG mice was assessed to determine whether ATRA-encapsulated PLGA MPS act via systemic release, in which case subcutaneous ATRA-encapsulated PLGA MPS treatment would improve disease scores, or if ATRA-encapsulated PLGA MPS treatment acts locally, in which case its delivery to the intra-articular space would improve disease scores. ATRA-encapsulated PLGA MPS, dose-matched Bolus ATRA in corn oil, and vehicle (corn oil) were administered to arthritic SKG subcutaneously between the scapula of SKG mice (FIGS. 9A-B)."}},
  "data": [
    {"smiles": "CC1=C(/C=C/C(C)=C/C=C/C(C)=C/C(=O)O)C(C)(C)CCC1", "note": "[ATRA, all-trans retinoic acid]", "values": [
      {"measurement": "fraction of IL-17A+CD4+ T cells", "setting": "Naïve SKG CD4+ T cells; 10 pM ATRA", "value": "9.5±1.7", "unit": "%"},
      {"measurement": "fraction of IL-17A+CD4+ T cells", "setting": "Naïve SKG CD4+ T cells; 100 pM ATRA", "value": "7.2±1.5", "unit": "%"},
      {"measurement": "fraction of IL-17A+CD4+ T cells", "setting": "Naïve SKG CD4+ T cells; 1 nM ATRA", "value": "5.4±1.9", "unit": "%"},
      {"measurement": "fraction of RORγt+CD4+ T cells", "setting": "Naïve SKG CD4+ T cells; 1 nM ATRA", "value": "53.3±7.9", "unit": "%"},
      {"measurement": "fraction of IL-17A+CD4+ T cells", "setting": "Naïve SKG CD4+ T cells; 10 nM ATRA", "value": "5.4±2.3", "unit": "%"},
      {"measurement": "FoxP3 expression in CD4+ T cells", "setting": "Naïve SKG CD4+ T cells; ATRA above 100 pM", "value": "40.0±3.4", "unit": "%"},
      {"measurement": "FoxP3 expression in CD4+ T cells", "setting": "Naïve SKG CD4+ T cells; ATRA below 100 pM", "value": "11.2±2.3", "unit": "%"},
      {"measurement": "cells expressing IL-17", "setting": "SKG FoxP3eGFP Treg cells", "value": "5.7±1.1", "unit": "%"},
      {"measurement": "cells expressing RORγt", "setting": "SKG FoxP3eGFP Treg cells", "value": "11.6±1.8", "unit": "%"},
      {"measurement": "cells retaining FoxP3eGFP expression", "setting": "SKG FoxP3eGFP Treg cells", "value": "71.6±5.5", "unit": "%"},
      {"measurement": "OVA-specific CD4+ T cells (tetramer staining)", "setting": "[1]", "value": "significantly lower"},
      {"measurement": "regions in the DNA more open in the ATRA treated cells", "setting": "[2]; 1 nM ATRA versus Th17 control", "value": 7957},
      {"measurement": "accessibility of FoxP3 locus", "setting": "[2]; 1 nM ATRA, genome browser plot", "value": "promotes accessibility"},
      {"measurement": "regions in the DNA more open in the Th17 control", "setting": "[2]; Th17 control versus 1 nM ATRA", "value": 10316},
      {"measurement": "FOXP3 expression", "setting": "CD4+ T cells", "value": "increases"},
      {"measurement": "IL-17 expression", "setting": "CD4+ T cells", "value": "reduces"},
      {"measurement": "doses associated with toxicity", "setting": "rodents", "value": "> 14", "unit": "mg/kg"}
    ]},
    {"smiles": "CC1=C(/C=C/C(C)=C/C=C/C(C)=C/C(=O)O)C(C)(C)CCC1", "note": "[bolus ATRA, all-trans retinoic acid]", "values": [
      {"measurement": "severity of arthritis / clinical benefit", "setting": "[3]; 2 μg IA MPs versus dose-matched IA bolus", "value": "no clinical benefit"},
      {"measurement": "clinical scores in ipsilateral and contralateral ankles", "setting": "[3]; dose-matched IA bolus in corn oil", "value": "increased comparably"},
      {"measurement": "ankle swelling", "setting": "arthritic SKG mice", "value": "Neither bolus ATRA nor ATRA-encapsulated PLGA MPs provided improvement"},
      {"measurement": "clinical score", "setting": "arthritic SKG mice", "value": "Neither bolus ATRA nor ATRA-encapsulated PLGA MPs provided improvement"}
    ]}
  ]
}
